This is an account of results in patent US8759532B2, “Pyridine and pyrimidine derivatives as phosphodiesterase 10 inhibitors” (AMGEN Inc., priority 2008, dated 2014).

pIC50: −log10 of the molar value.

The target in this assay is PDE10 (Mus musculus, UniProt Q8CA95). Kind of assay: PDE10 enzyme inhibition, IMAP TR-FRET assay. In kind it is biochemical. The protocol: MPDE10A7 Enzyme Activity and Inhibition
An IMAP TR-FRET assay was used to analyze the enzyme activity (Molecular Devices Corp., Sunnyvale Calif.). 5 μL of serial diluted PDE10A (BPS Bioscience, San Diego, Calif.) or tissue homogenate was incubated with equal volumes of diluted fluorescein labeled cAMP or cGMP for 60 min in 384-well polystyrene assay plates (Corning, Corning, N.Y.) at room temperature. After incubation, the reaction was stopped by adding 60 μL of diluted binding reagents and was incubated for 3 hours to overnight at room temperature. The plates were read on an Envision (Perkin Elmer, Waltham, Mass.) for time resolved fluorescence resonance energy transfer. The data were analyzed with GraphPad Prism (La Jolla, Calif.).
To check the inhibition profile, 5 μL of serial diluted compounds were incubated with 5 μL of diluted PDE10 enzyme (BPS Bioscience, San Diego, Calif.) or tissue homogenate in a 384-well polystyrene assay plate (Corning, Corning, N.Y.) for 30 min at room temperature. After incubation, 10 μL of diluted fluorescein labeled cAMP or cGMP substrate were added and incubated for 60 min at room temperature. The reaction was stopped by adding 60 μL of diluted binding reagents and plates were read on an Envision (Perkin Elmer, Waltham, Mass.) for time resolved fluorescence resonance energy transfer. The data were analyzed with GraphPad Prism (La Jolla, Calif.).
The tabulated IC50 data represent an average IC50 data for each compound.

Chain of PDE10 (Q8CA95 whole entry, looked up): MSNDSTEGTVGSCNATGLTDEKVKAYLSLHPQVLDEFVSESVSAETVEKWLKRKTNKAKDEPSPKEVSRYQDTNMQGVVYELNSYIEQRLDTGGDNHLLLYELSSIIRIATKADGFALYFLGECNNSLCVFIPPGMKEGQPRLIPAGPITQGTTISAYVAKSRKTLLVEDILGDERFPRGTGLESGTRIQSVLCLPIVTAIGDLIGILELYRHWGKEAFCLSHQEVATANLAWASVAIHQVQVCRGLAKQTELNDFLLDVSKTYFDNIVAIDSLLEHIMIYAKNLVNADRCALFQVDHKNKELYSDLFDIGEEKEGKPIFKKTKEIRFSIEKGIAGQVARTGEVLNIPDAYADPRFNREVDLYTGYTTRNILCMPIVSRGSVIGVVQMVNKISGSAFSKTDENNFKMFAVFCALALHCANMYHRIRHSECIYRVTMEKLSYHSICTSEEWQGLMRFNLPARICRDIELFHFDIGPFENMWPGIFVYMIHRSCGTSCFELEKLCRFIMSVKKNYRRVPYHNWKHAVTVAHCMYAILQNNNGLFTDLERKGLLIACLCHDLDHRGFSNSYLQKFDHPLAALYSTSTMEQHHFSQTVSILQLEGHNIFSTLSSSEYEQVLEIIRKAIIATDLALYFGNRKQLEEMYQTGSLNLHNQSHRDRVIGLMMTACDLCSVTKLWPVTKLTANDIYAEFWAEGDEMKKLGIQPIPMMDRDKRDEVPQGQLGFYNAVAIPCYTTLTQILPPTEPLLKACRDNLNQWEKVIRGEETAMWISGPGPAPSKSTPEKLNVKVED

By pIC50 is commonly meant the IC50 on a negative log10 scale, so that one unit is a factor of ten. High values mean a small IC50, low ones a large IC50. `FC(F)(F)c1cc(-c2cccnc2Oc2ccc(Cc3nc4ccccc4[nH]3)cc2)ccn1` [Example 62, 2-(4-(2′-(trifluoromethyl)-3,4′-bipyriidn-2-yloxy)benzyl)-1H-benzo[d]imidazole] showed a pIC50 (IC50 class against PDE10, Table IA) of 6.60 to 7.00. On to `COc1cnccc1-c1cccnc1Oc1ccc(Nc2nc3ccccc3s2)cc1` [Example 165, N-(4-(3′-methoxy-3,4′-bipyriidn-2-yloxy)phenyl)benzo[d]thiazol-2-amine], for which the pIC50 (IC50 class against PDE10, Table IIA) was greater than 7.60. “(R)-4-(2-(4-(1H-benzo[d]imidazole-2-carbonyl)phenoxy)pyridin-3-yl)-1-methylpyrrolidin-2-one and (S)-4-(2-(4-(1H-benzo[d]imidazole-2-carbonyl)phenoxy)pyridin-3-yl)-1-methylpyrrolidin-2-one [Example 209]” gave a pIC50 (IC50 class against PDE10, printed at end of example text) greater than 7.60.
